Test results published in ChEMBL document CHEMBL1909046, “DrugMatrix in vitro pharmacology data”.

The compounds below were run against Mitogen-activated protein kinase 14 (Homo sapiens, UniProt Q16539). Settings: not given.
Set-up: species or system Escherichia coli
Wherever Ki is given: in other assays of this panel Not Active means under 50% inhibition at 10 µM.

Chain of Mitogen-activated protein kinase 14 (Q16539 whole entry): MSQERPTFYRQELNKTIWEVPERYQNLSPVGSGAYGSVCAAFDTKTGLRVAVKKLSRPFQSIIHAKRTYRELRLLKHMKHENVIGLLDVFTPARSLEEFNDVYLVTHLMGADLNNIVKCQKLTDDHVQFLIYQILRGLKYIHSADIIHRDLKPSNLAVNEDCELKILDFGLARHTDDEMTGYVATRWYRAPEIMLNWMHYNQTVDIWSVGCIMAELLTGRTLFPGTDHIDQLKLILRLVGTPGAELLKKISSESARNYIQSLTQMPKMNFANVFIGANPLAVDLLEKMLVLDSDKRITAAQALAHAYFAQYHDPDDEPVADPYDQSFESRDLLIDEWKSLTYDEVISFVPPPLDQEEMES

Row | Compound | IC50
1 | O=S(=O)([O-])CCS.[Na+] [MESNA] | Not Active
2 | C#C[C@]1(O)CC[C@H]2[C@@H]3CCc4cc(OC)ccc4[C@H]3CC[C@@]21C [MESTRANOL] | Not Active
3 | CC(=O)Nc1cccc(O)c1 [METACETAMOL] | Not Active
4 | Cc1ncc([N+](=O)[O-])n1CCO [METRONIDAZOLE] | Not Active
5 | CC(C)(C(=O)c1cccnc1)c1cccnc1 [METYRAPONE] | Not Active
6 | Oc1ccc(OCc2ccccc2)cc1 [MONOBENZONE] | Not Active
7 | CC(C)[C@H]1CC[C@H](C(=O)N[C@H](Cc2ccccc2)C(=O)O)CC1 [NATEGLINIDE] | Not Active
8 | CCN[C@@H]1C[C@H](N)[C@@H](O[C@H]2OC(CN)=CC[C@H]2N)[C@H](O)[C@H]1O[C@H]1OC[C@](C)(O)[C@H](NC)[C@H]1O [NETILMICIN] | Not Active
9 | CCOC(=O)C1=C(C)NC(C)=C(C(=O)OC)C1c1cccc([N+](=O)[O-])c1 (configuration not stated) [NITRENDIPINE] | Not Active
10 | C#C[C@]1(OC(C)=O)CC[C@H]2[C@@H]3CCC4=CC(=O)CC[C@@H]4[C@H]3CC[C@@]21C [NORETHINDRONE ACETATE] | Not Active

Same assay, conditions: read-out: IC50

Row | Compound | IC50 [µM]
11 | CC(C)(Oc1ccc(C2CCCc3ccccc32)cc1)C(=O)O (configuration not stated) [NAFENOPIN] | 3.74

The compounds below were run against Nitric oxide synthase 1 (Rattus norvegicus, UniProt P29476). Settings: not given.
Chain of Nitric oxide synthase 1 (P29476 whole entry): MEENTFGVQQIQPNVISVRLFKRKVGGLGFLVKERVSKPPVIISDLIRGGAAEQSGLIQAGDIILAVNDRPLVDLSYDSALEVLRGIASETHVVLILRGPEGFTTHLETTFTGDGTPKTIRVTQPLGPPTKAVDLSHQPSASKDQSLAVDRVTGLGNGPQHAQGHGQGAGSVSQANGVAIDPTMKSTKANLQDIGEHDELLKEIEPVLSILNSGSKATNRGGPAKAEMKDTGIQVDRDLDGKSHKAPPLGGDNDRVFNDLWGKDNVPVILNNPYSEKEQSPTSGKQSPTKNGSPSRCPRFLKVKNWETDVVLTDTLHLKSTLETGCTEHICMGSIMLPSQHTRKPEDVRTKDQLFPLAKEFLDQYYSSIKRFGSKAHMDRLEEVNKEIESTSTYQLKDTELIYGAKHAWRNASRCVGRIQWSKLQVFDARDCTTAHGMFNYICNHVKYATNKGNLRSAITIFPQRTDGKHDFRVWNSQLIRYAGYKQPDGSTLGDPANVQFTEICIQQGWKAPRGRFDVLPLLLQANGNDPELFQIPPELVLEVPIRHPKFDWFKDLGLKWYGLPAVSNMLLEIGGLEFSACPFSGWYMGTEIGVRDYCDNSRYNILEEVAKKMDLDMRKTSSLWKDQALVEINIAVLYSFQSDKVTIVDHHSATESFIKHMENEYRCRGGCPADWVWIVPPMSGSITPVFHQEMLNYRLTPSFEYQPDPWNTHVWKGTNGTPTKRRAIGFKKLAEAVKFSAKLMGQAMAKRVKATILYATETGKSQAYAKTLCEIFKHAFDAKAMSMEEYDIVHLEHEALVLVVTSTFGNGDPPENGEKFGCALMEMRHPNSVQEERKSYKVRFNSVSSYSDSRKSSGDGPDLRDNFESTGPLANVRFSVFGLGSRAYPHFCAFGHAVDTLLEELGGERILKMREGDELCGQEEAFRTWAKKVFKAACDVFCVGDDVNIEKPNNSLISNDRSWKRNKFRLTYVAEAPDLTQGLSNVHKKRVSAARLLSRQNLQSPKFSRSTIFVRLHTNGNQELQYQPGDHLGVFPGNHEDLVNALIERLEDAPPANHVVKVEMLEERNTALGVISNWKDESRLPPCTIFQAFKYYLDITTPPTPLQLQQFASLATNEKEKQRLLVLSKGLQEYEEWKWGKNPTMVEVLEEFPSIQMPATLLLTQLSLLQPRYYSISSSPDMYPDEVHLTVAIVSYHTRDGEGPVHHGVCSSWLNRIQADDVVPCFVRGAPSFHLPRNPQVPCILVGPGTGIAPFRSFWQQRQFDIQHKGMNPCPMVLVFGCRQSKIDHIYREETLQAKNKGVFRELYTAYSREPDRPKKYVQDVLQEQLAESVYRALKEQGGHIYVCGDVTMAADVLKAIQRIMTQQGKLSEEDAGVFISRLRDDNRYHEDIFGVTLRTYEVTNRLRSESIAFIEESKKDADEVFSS
Format: tissue-based, Cerebellum

Row | Compound | IC50
12 | O=S(=O)([O-])CCS.[Na+] [MESNA] | Not Active
13 | C#C[C@]1(O)CC[C@H]2[C@@H]3CCc4cc(OC)ccc4[C@H]3CC[C@@]21C [MESTRANOL] | Not Active
14 | CC(=O)Nc1cccc(O)c1 [METACETAMOL] | Not Active
15 | Cc1ncc([N+](=O)[O-])n1CCO [METRONIDAZOLE] | Not Active
16 | CC(C)(C(=O)c1cccnc1)c1cccnc1 [METYRAPONE] | Not Active
17 | Oc1ccc(OCc2ccccc2)cc1 [MONOBENZONE] | Not Active
18 | CC(C)(Oc1ccc(C2CCCc3ccccc32)cc1)C(=O)O (configuration not stated) [NAFENOPIN] | Not Active
19 | CC(C)[C@H]1CC[C@H](C(=O)N[C@H](Cc2ccccc2)C(=O)O)CC1 [NATEGLINIDE] | Not Active
20 | CCN[C@@H]1C[C@H](N)[C@@H](O[C@H]2OC(CN)=CC[C@H]2N)[C@H](O)[C@H]1O[C@H]1OC[C@](C)(O)[C@H](NC)[C@H]1O [NETILMICIN] | Not Active
21 | CCOC(=O)C1=C(C)NC(C)=C(C(=O)OC)C1c1cccc([N+](=O)[O-])c1 (configuration not stated) [NITRENDIPINE] | Not Active
22 | C#C[C@]1(OC(C)=O)CC[C@H]2[C@@H]3CCC4=CC(=O)CC[C@@H]4[C@H]3CC[C@@]21C [NORETHINDRONE ACETATE] | Not Active

These compounds were tested against T1, Substance-K receptor (Homo sapiens, UniProt P21452). Settings: cho.
T1 sequence (P21452 whole entry): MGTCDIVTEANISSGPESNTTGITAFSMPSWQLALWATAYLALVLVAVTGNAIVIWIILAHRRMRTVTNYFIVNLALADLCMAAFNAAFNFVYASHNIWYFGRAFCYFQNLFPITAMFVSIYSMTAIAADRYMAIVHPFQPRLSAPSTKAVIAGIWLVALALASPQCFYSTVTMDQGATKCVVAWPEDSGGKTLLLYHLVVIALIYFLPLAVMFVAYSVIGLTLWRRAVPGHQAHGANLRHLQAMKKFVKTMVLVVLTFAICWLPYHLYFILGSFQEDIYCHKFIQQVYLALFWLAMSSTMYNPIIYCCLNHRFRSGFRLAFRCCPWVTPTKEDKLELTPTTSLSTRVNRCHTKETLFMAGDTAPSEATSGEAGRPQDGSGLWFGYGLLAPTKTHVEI
Format: cell membranes, CHO, Membrane

Row | Compound | IC50
23 | O=S(=O)([O-])CCS.[Na+] [MESNA] | Not Active
24 | C#C[C@]1(O)CC[C@H]2[C@@H]3CCc4cc(OC)ccc4[C@H]3CC[C@@]21C [MESTRANOL] | Not Active
25 | CC(=O)Nc1cccc(O)c1 [METACETAMOL] | Not Active
26 | Cc1ncc([N+](=O)[O-])n1CCO [METRONIDAZOLE] | Not Active
27 | CC(C)(C(=O)c1cccnc1)c1cccnc1 [METYRAPONE] | Not Active
28 | Oc1ccc(OCc2ccccc2)cc1 [MONOBENZONE] | Not Active
29 | CC(C)(Oc1ccc(C2CCCc3ccccc32)cc1)C(=O)O (configuration not stated) [NAFENOPIN] | Not Active
30 | CC(C)[C@H]1CC[C@H](C(=O)N[C@H](Cc2ccccc2)C(=O)O)CC1 [NATEGLINIDE] | Not Active
31 | CCN[C@@H]1C[C@H](N)[C@@H](O[C@H]2OC(CN)=CC[C@H]2N)[C@H](O)[C@H]1O[C@H]1OC[C@](C)(O)[C@H](NC)[C@H]1O [NETILMICIN] | Not Active
32 | CCOC(=O)C1=C(C)NC(C)=C(C(=O)OC)C1c1cccc([N+](=O)[O-])c1 (configuration not stated) [NITRENDIPINE] | Not Active
33 | C#C[C@]1(OC(C)=O)CC[C@H]2[C@@H]3CCC4=CC(=O)CC[C@@H]4[C@H]3CC[C@@]21C [NORETHINDRONE ACETATE] | Not Active

The compounds below were run against Cytochrome P450 2D6 (Homo sapiens, UniProt P10635). Settings: bti-tn-5b1-4.
Chain of Cytochrome P450 2D6 (P10635 whole entry): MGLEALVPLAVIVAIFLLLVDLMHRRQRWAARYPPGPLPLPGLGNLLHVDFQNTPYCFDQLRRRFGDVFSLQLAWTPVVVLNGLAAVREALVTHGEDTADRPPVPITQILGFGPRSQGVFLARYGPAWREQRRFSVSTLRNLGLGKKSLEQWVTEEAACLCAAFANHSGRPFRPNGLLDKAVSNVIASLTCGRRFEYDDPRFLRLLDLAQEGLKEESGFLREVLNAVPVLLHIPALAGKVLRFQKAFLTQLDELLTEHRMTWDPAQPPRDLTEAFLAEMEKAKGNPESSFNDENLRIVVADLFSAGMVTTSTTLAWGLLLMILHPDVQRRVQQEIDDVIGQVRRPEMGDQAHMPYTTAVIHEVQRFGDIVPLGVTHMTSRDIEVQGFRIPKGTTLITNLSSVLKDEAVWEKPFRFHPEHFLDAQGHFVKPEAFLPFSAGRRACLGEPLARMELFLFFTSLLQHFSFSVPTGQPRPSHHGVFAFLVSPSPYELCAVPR

Row | Compound | IC50 | Ki
34 | O=S(=O)([O-])CCS.[Na+] [MESNA] | Not Active | Not Active
35 | C#C[C@]1(O)CC[C@H]2[C@@H]3CCc4cc(OC)ccc4[C@H]3CC[C@@]21C [MESTRANOL] | Not Active | Not Active
36 | CC(=O)Nc1cccc(O)c1 [METACETAMOL] | Not Active | Not Active
37 | Cc1ncc([N+](=O)[O-])n1CCO [METRONIDAZOLE] | Not Active | Not Active
38 | CC(C)(C(=O)c1cccnc1)c1cccnc1 [METYRAPONE] | Not Active | Not Active
39 | Oc1ccc(OCc2ccccc2)cc1 [MONOBENZONE] | Not Active | Not Active
40 | CC(C)(Oc1ccc(C2CCCc3ccccc32)cc1)C(=O)O (configuration not stated) [NAFENOPIN] | Not Active | Not Active
41 | CC(C)[C@H]1CC[C@H](C(=O)N[C@H](Cc2ccccc2)C(=O)O)CC1 [NATEGLINIDE] | Not Active | Not Active
42 | CCN[C@@H]1C[C@H](N)[C@@H](O[C@H]2OC(CN)=CC[C@H]2N)[C@H](O)[C@H]1O[C@H]1OC[C@](C)(O)[C@H](NC)[C@H]1O [NETILMICIN] | Not Active | Not Active
43 | CCOC(=O)C1=C(C)NC(C)=C(C(=O)OC)C1c1cccc([N+](=O)[O-])c1 (configuration not stated) [NITRENDIPINE] | Not Active | Not Active
44 | C#C[C@]1(OC(C)=O)CC[C@H]2[C@@H]3CCC4=CC(=O)CC[C@@H]4[C@H]3CC[C@@]21C [NORETHINDRONE ACETATE] | Not Active | Not Active

Each compound was assayed against T2, Amine oxidase [flavin-containing] A (Homo sapiens, UniProt P21397) (assay: DRUGMATRIX: Monoamine Oxidase MAO-A enzyme inhibition (substrate: Kynuramine)). Settings: bti-tn-5b1-4; Not Active = under 50% inhibition at 10 µM.
T2 sequence (P21397 whole entry): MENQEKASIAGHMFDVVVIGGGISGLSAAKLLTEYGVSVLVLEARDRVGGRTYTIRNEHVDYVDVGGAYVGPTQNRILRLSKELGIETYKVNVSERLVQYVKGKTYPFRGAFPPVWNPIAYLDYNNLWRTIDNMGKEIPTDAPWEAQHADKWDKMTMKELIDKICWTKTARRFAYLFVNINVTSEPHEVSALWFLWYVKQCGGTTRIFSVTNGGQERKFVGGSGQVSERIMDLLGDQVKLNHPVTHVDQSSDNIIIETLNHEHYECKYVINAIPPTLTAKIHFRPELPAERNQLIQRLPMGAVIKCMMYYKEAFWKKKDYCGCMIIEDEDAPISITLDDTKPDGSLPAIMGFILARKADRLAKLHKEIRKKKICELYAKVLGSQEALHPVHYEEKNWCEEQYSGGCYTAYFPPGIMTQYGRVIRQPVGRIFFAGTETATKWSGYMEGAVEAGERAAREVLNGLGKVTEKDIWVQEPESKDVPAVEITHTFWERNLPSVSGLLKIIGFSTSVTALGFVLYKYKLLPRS
Set-up: species or system BTI-TN-5B1-4

Row | Compound | IC50
45 | O=S(=O)([O-])CCS.[Na+] [MESNA] | Not Active
46 | C#C[C@]1(O)CC[C@H]2[C@@H]3CCc4cc(OC)ccc4[C@H]3CC[C@@]21C [MESTRANOL] | Not Active
47 | CC(=O)Nc1cccc(O)c1 [METACETAMOL] | Not Active
48 | Cc1ncc([N+](=O)[O-])n1CCO [METRONIDAZOLE] | Not Active
49 | CC(C)(C(=O)c1cccnc1)c1cccnc1 [METYRAPONE] | Not Active
50 | Oc1ccc(OCc2ccccc2)cc1 [MONOBENZONE] | Not Active
51 | CC(C)(Oc1ccc(C2CCCc3ccccc32)cc1)C(=O)O (configuration not stated) [NAFENOPIN] | Not Active
52 | CC(C)[C@H]1CC[C@H](C(=O)N[C@H](Cc2ccccc2)C(=O)O)CC1 [NATEGLINIDE] | Not Active
53 | CCN[C@@H]1C[C@H](N)[C@@H](O[C@H]2OC(CN)=CC[C@H]2N)[C@H](O)[C@H]1O[C@H]1OC[C@](C)(O)[C@H](NC)[C@H]1O [NETILMICIN] | Not Active
54 | CCOC(=O)C1=C(C)NC(C)=C(C(=O)OC)C1c1cccc([N+](=O)[O-])c1 (configuration not stated) [NITRENDIPINE] | Not Active
55 | C#C[C@]1(OC(C)=O)CC[C@H]2[C@@H]3CCC4=CC(=O)CC[C@@H]4[C@H]3CC[C@@]21C [NORETHINDRONE ACETATE] | Not Active

These compounds were tested against Adenosine receptor A2a (Homo sapiens, UniProt P29274) (assay: DRUGMATRIX: Adenosine A2A radioligand binding (ligand: […])). Settings: hek293; Not Active = under 50% inhibition at 10 µM.
Chain of Adenosine receptor A2a (P29274 whole entry): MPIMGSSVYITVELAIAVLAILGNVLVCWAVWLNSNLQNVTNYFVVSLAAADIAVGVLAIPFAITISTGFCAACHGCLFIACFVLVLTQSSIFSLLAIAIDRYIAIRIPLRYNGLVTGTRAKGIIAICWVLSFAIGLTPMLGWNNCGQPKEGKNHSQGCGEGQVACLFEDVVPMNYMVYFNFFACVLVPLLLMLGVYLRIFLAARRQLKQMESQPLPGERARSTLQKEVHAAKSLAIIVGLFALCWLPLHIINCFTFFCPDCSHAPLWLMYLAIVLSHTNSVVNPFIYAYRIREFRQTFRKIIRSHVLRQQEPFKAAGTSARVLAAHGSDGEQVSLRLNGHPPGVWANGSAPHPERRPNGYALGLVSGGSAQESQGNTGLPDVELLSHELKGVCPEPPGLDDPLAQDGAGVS
Format: cell membranes, HEK293, Membrane

Row | Compound | IC50
56 | O=S(=O)([O-])CCS.[Na+] [MESNA] | Not Active
57 | C#C[C@]1(O)CC[C@H]2[C@@H]3CCc4cc(OC)ccc4[C@H]3CC[C@@]21C [MESTRANOL] | Not Active
58 | CC(=O)Nc1cccc(O)c1 [METACETAMOL] | Not Active
59 | Cc1ncc([N+](=O)[O-])n1CCO [METRONIDAZOLE] | Not Active
60 | CC(C)(C(=O)c1cccnc1)c1cccnc1 [METYRAPONE] | Not Active
61 | Oc1ccc(OCc2ccccc2)cc1 [MONOBENZONE] | Not Active
62 | CC(C)(Oc1ccc(C2CCCc3ccccc32)cc1)C(=O)O (configuration not stated) [NAFENOPIN] | Not Active
63 | CC(C)[C@H]1CC[C@H](C(=O)N[C@H](Cc2ccccc2)C(=O)O)CC1 [NATEGLINIDE] | Not Active
64 | CCN[C@@H]1C[C@H](N)[C@@H](O[C@H]2OC(CN)=CC[C@H]2N)[C@H](O)[C@H]1O[C@H]1OC[C@](C)(O)[C@H](NC)[C@H]1O [NETILMICIN] | Not Active
65 | CCOC(=O)C1=C(C)NC(C)=C(C(=O)OC)C1c1cccc([N+](=O)[O-])c1 (configuration not stated) [NITRENDIPINE] | Not Active
66 | C#C[C@]1(OC(C)=O)CC[C@H]2[C@@H]3CCC4=CC(=O)CC[C@@H]4[C@H]3CC[C@@]21C [NORETHINDRONE ACETATE] | Not Active
